Laboratory results: PubChem BioAssay (NCI)
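Where inhibition never reached the appropriate level, the endpoint shown equals the highest concentration tested. Otherwise, values were interpolated linearly from a five-concentration, 48-hour dose response in 96-well plates. TGI denotes the concentration required for complete inhibition of growth.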

Assays:
Assay in all cases: DTP human tumour cell line panel, 48 h
SW-620 colon = test system: SW-620 colon
LOX IMVI melanoma = test system: LOX IMVI melanoma
PC-3 prostate = test system: PC-3 prostate
OVCAR-5 ovarian = test system: OVCAR-5 ovarian
DU-145 prostate = test system: DU-145 prostate
M14 melanoma = test system: M14 melanoma
HS 578T breast = test system: HS 578T breast
A498 renal = test system: A498 renal
MDA-MB-231 breast = test system: MDA-MB-231 breast
SK-MEL-5 melanoma = test system: SK-MEL-5 melanoma
HCC-2998 colon = test system: HCC-2998 colon
SNB-19 CNS = test system: SNB-19 CNS
MDA-MB-435 = test system: MDA-MB-435
HOP-92 NSCLC = test system: HOP-92 NSCLC
MCF7 breast = test system: MCF7 breast
SN12C renal = test system: SN12C renal
HOP-62 NSCLC = test system: HOP-62 NSCLC
UACC-62 melanoma = test system: UACC-62 melanoma
A549 NSCLC = test system: A549 NSCLC
RPMI-8226 leukemia = test system: RPMI-8226 leukemia
U251 CNS = test system: U251 CNS
K-562 leukemia = test system: K-562 leukemia
786-0 renal = test system: 786-0 renal
SF-539 CNS = test system: SF-539 CNS
IGROV1 ovarian = test system: IGROV1 ovarian
SNB-75 CNS = test system: SNB-75 CNS
SK-OV-3 ovarian = test system: SK-OV-3 ovarian
CAKI-1 renal = test system: CAKI-1 renal
SR leukemia = test system: SR leukemia
HL-60(TB) leukemia = test system: HL-60(TB) leukemia
NCI/ADR-RES ovarian = test system: NCI/ADR-RES ovarian
OVCAR-8 ovarian = test system: OVCAR-8 ovarian
SK-MEL-28 melanoma = test system: SK-MEL-28 melanoma
TK-10 renal = test system: TK-10 renal
MOLT-4 leukemia = test system: MOLT-4 leukemia
HCT-15 colon = test system: HCT-15 colon
UACC-257 melanoma = test system: UACC-257 melanoma
UO-31 renal = test system: UO-31 renal
T-47D breast = test system: T-47D breast
HCT-116 colon = test system: HCT-116 colon
MALME-3M melanoma = test system: MALME-3M melanoma
ACHN renal = test system: ACHN renal
OVCAR-3 ovarian = test system: OVCAR-3 ovarian
NCI-H226 lung = test system: NCI-H226 lung
CCRF-CEM leukemia = test system: CCRF-CEM leukemia
SF-268 CNS = test system: SF-268 CNS
HT29 colon = test system: HT29 colon
SK-MEL-2 melanoma = test system: SK-MEL-2 melanoma
RXF 393 renal = test system: RXF 393 renal
COLO 205 colon = test system: COLO 205 colon
OVCAR-4 ovarian = test system: OVCAR-4 ovarian
KM12 colon = test system: KM12 colon
SF-295 CNS = test system: SF-295 CNS
NCI-H23 lung = test system: NCI-H23 lung
NCI-H460 lung = test system: NCI-H460 lung
BT-549 breast = test system: BT-549 breast
MDA-N = test system: MDA-N
NCI-H522 lung = test system: NCI-H522 lung
EKVX NSCLC = test system: EKVX NSCLC
KM20L2 colon = test system: KM20L2 colon
HOP-18 NSCLC = test system: HOP-18 NSCLC
LXFL 529 NSCLC = test system: LXFL 529 NSCLC
DMS 114 small cell lung = test system: DMS 114 small cell lung

In the case of CCOC(=O)c1nc2ccccc2nc1Nc1ccc(F)cc1, the TGI (SW-620 colon) is reported as > 100 µM, the TGI (LOX IMVI melanoma) is reported as > 100 µM and the TGI (PC-3 prostate) is reported as > 100 µM. The TGI (OVCAR-5 ovarian) was > 100 µM, the TGI (DU-145 prostate) was > 100 µM and the TGI (M14 melanoma) was > 100 µM. The TGI (HS 578T breast) was > 84.8 µM, the TGI (A498 renal) was 58.5 µM and the TGI (MDA-MB-231 breast) was 24.2 µM. For the same compound, the TGI (SK-MEL-5 melanoma) was > 100 µM, the TGI (HCC-2998 colon) was > 100 µM and the TGI (SNB-19 CNS) was 46.6 µM. The TGI (MDA-MB-435) was > 100 µM, the TGI (HOP-92 NSCLC) was 43.9 µM and the TGI (MCF7 breast) was > 100 µM. For the same compound, the TGI (SN12C renal) was > 100 µM, the TGI (HOP-62 NSCLC) was 38.2 µM and the TGI (UACC-62 melanoma) was > 100 µM. For the same compound, the TGI (A549 NSCLC) was > 100 µM, the TGI (RPMI-8226 leukemia) was > 100 µM and the TGI (U251 CNS) was 70.6 µM. For the same compound, the TGI (K-562 leukemia) was > 100 µM, the TGI (786-0 renal) was > 72.2 µM and the TGI (SF-539 CNS) was > 58.9 µM. For the same compound, the TGI (IGROV1 ovarian) was 44.8 µM, the TGI (SNB-75 CNS) was 18.5 µM and the TGI (SK-OV-3 ovarian) was 37.7 µM. The TGI (CAKI-1 renal) was > 100 µM, the TGI (SR leukemia) was > 100 µM and the TGI (HL-60(TB) leukemia) was > 100 µM. For the same compound, the TGI (NCI/ADR-RES ovarian) was > 100 µM, the TGI (OVCAR-8 ovarian) was 32 µM and the TGI (SK-MEL-28 melanoma) was > 100 µM. The TGI (TK-10 renal) was > 100 µM, the TGI (MOLT-4 leukemia) was > 100 µM and the TGI (HCT-15 colon) was > 100 µM. For the same compound, the TGI (UACC-257 melanoma) was > 100 µM, the TGI (UO-31 renal) was > 100 µM and the TGI (T-47D breast) was > 86.1 µM. For the same compound, the TGI (HCT-116 colon) was > 69.3 µM, the TGI (MALME-3M melanoma) was > 100 µM and the TGI (ACHN renal) was > 93.6 µM. For the same compound, the TGI (OVCAR-3 ovarian) was > 100 µM, the TGI (NCI-H226 lung) was > 63.7 µM and the TGI (CCRF-CEM leukemia) was > 100 µM. The TGI (SF-268 CNS) was 30 µM, the TGI (HT29 colon) was > 100 µM and the TGI (SK-MEL-2 melanoma) was > 83.4 µM. The TGI (RXF 393 renal) was 26.7 µM, the TGI (COLO 205 colon) was > 100 µM and the TGI (OVCAR-4 ovarian) was > 100 µM. The TGI (KM12 colon) was > 100 µM, the TGI (SF-295 CNS) was 28.9 µM and the TGI (NCI-H23 lung) was 69.1 µM. The TGI (NCI-H460 lung) was > 100 µM, the TGI (BT-549 breast) was 73.2 µM and the TGI (MDA-N) was > 100 µM. For the same compound, the TGI (NCI-H522 lung) was > 100 µM and the TGI (EKVX NSCLC) was > 68.7 µM.

With CCC1(O)CC(O)c2c(O)c3c(c(O)c2C1C(=O)OC)C(=O)c1cccc(O)c1C3=O (stereo not drawn) the TGI (SW-620 colon) was > 48.2 µM, the TGI (LOX IMVI melanoma) was 9.92 µM and the TGI (PC-3 prostate) was 13 µM. For the same compound, the TGI (OVCAR-5 ovarian) was 21 µM, the TGI (DU-145 prostate) was 21.8 µM and the TGI (M14 melanoma) was 14.1 µM. It also gave a TGI (HS 578T breast) of 24.5 µM, a TGI (A498 renal) of 18.4 µM and a TGI (MDA-MB-231 breast) of 13 µM. The TGI (SK-MEL-5 melanoma) was 6.39 µM, the TGI (HCC-2998 colon) was 21.4 µM and the TGI (SNB-19 CNS) was 20.9 µM. The TGI (MDA-MB-435) was > 100 µM, the TGI (HOP-92 NSCLC) was 32.1 µM and the TGI (MCF7 breast) was 16.9 µM. The TGI (SN12C renal) was 17.3 µM, the TGI (HOP-62 NSCLC) was 16.6 µM and the TGI (UACC-62 melanoma) was 12.4 µM. The TGI (A549 NSCLC) was 14.2 µM, the TGI (RPMI-8226 leukemia) was > 23.1 µM and the TGI (U251 CNS) was 16.6 µM. For the same compound, the TGI (K-562 leukemia) was > 21.8 µM, the TGI (786-0 renal) was 14.3 µM and the TGI (SF-539 CNS) was 14.8 µM. The TGI (IGROV1 ovarian) was 12.1 µM, the TGI (SNB-75 CNS) was 18.5 µM and the TGI (SK-OV-3 ovarian) was > 36.1 µM. The TGI (CAKI-1 renal) was 15.3 µM, the TGI (SR leukemia) was 5.91 µM and the TGI (HL-60(TB) leukemia) was 6.07 µM. It also gave a TGI (NCI/ADR-RES ovarian) of 3.28 µM, a TGI (OVCAR-8 ovarian) of 5.88 µM and a TGI (SK-MEL-28 melanoma) of 75.4 µM. It also gave a TGI (TK-10 renal) of 24.3 µM, a TGI (MOLT-4 leukemia) of 2.19 µM and a TGI (HCT-15 colon) of 21.1 µM. It also gave a TGI (UACC-257 melanoma) of 21.8 µM, a TGI (UO-31 renal) of 13.2 µM and a TGI (T-47D breast) of 32.8 µM. It also gave a TGI (HCT-116 colon) of 11.7 µM, a TGI (MALME-3M melanoma) of 7.08 µM and a TGI (ACHN renal) of 15.1 µM. The TGI (OVCAR-3 ovarian) was 8.63 µM, the TGI (NCI-H226 lung) was 18.1 µM and the TGI (CCRF-CEM leukemia) was 9.71 µM. It also gave a TGI (SF-268 CNS) of 16.2 µM, a TGI (HT29 colon) of 14.1 µM and a TGI (SK-MEL-2 melanoma) of 10.2 µM. It also gave a TGI (RXF 393 renal) of 23.5 µM, a TGI (COLO 205 colon) of 7.65 µM and a TGI (OVCAR-4 ovarian) of 13.9 µM. For the same compound, the TGI (KM12 colon) was 17.4 µM, the TGI (SF-295 CNS) was 10.7 µM and the TGI (NCI-H23 lung) was 24.4 µM. For the same compound, the TGI (NCI-H460 lung) was 14.2 µM, the TGI (BT-549 breast) was 34.8 µM and the TGI (MDA-N) was 47.1 µM. The TGI (NCI-H522 lung) was 4.96 µM and the TGI (EKVX NSCLC) was 6.65 µM.

In the case of Cc1c(/C=N/NS(=O)(=O)c2ccccc2)no[n+]1[O-], the TGI (SW-620 colon) is reported as > 100 µM, the TGI (OVCAR-5 ovarian) is reported as > 100 µM and the TGI (M14 melanoma) is reported as > 100 µM. For the same compound, the TGI (A498 renal) was > 100 µM, the TGI (KM20L2 colon) was > 100 µM and the TGI (SK-MEL-5 melanoma) was > 100 µM. The TGI (SNB-19 CNS) was > 100 µM, the TGI (HOP-92 NSCLC) was > 100 µM and the TGI (SN12C renal) was > 100 µM. The TGI (UACC-62 melanoma) was > 100 µM, the TGI (A549 NSCLC) was > 100 µM and the TGI (RPMI-8226 leukemia) was > 100 µM. The TGI (U251 CNS) was > 100 µM, the TGI (K-562 leukemia) was > 100 µM and the TGI (786-0 renal) was > 100 µM. The TGI (SF-539 CNS) was > 100 µM, the TGI (IGROV1 ovarian) was > 100 µM and the TGI (SK-OV-3 ovarian) was > 100 µM. The TGI (CAKI-1 renal) was > 100 µM, the TGI (SR leukemia) was > 100 µM and the TGI (HL-60(TB) leukemia) was > 100 µM. For the same compound, the TGI (OVCAR-8 ovarian) was > 100 µM, the TGI (SK-MEL-28 melanoma) was > 100 µM and the TGI (TK-10 renal) was > 100 µM. The TGI (MOLT-4 leukemia) was > 100 µM, the TGI (HCT-15 colon) was > 100 µM and the TGI (UO-31 renal) was 49.6 µM. For the same compound, the TGI (HCT-116 colon) was > 100 µM, the TGI (MALME-3M melanoma) was > 100 µM and the TGI (OVCAR-3 ovarian) was > 100 µM. For the same compound, the TGI (CCRF-CEM leukemia) was > 100 µM, the TGI (HOP-18 NSCLC) was > 100 µM and the TGI (LXFL 529 NSCLC) was > 100 µM. The TGI (SF-268 CNS) was > 100 µM, the TGI (DMS 114 small cell lung) was > 100 µM and the TGI (HT29 colon) was > 100 µM. The TGI (SK-MEL-2 melanoma) was > 100 µM, the TGI (RXF 393 renal) was > 100 µM and the TGI (COLO 205 colon) was > 100 µM. The TGI (OVCAR-4 ovarian) was > 100 µM, the TGI (KM12 colon) was > 100 µM and the TGI (SF-295 CNS) was > 100 µM. The TGI (NCI-H23 lung) was > 100 µM, the TGI (NCI-H522 lung) was > 100 µM and the TGI (EKVX NSCLC) was > 100 µM.
